Where two headings read alike, the source gives them in different places.
Tests used:
[1] = system: reserpine-induced hypothermia; assay: antagonism to reserpine-induced hypothermia; assay type: in vivo; conditions: Mus musculus, po; gavage 1 h before reserpine 1.5 mg/kg i.p.; rectal temperature 2 h after blepharospasm evaluation; male mice
Method: (§1) The tests were performed in an air-conditioned room at the constant temperature of 19°±1° C. Randomized groups of male mice were respectively treated by gavage with appropriate screening doses (from a maximum of 25 mg/kg below) of the test compounds, suspended in the vehicle (Methocel 0.5%; 1 ml/100 g b.w.), or with the vehicle alone.
(§2) One hour later the animals received an i.p. injection of reserpine (1.5 mg/kg; 1 ml/100 g b.w.), and one of the control groups the same volume of the vehicle alone (blank controls). Three hours after pretreatments, i.e. two hours after reserpine or vehicle treatments, blepharospasm was evaluated in scores as proposed by RUBIN et al. (J. Pharmacol., 120:125, 1957).
Two hours after the above-mentioned evaluation the rectal temperature of the animals was recorded by an appropriate probe connected to a digital thermometer (ELLAB DU-3).

[2] = orientative acute toxicity (7 days observation, Irwin's observational assessment of mouse behavior); conditions: mouse, in vivo, po
[3] = system: reserpine-induced blepharospasm; assay: antagonism to reserpine-induced blepharospasm; assay type: in vivo, male mice; conditions: Mus musculus, po, 3 h, read-out: Reserpine antagonism, Blepharospasm (ED50)
Method: as §1, §2

[4] = system: central amphetamine-induced hypothermia; assay: antagonism to central amphetamine-induced hypothermia; conditions: Mus musculus, po, read-out: Amphetamine antagonism (ED50)
mouse = assay: orientative acute toxicity (7 days observation, Irwin's observational assessment of mouse behavior); conditions: in mice; imipramine compared with title compounds

CN1C[C@H](COC2=CC(=O)CC2)C[C@@H]2c3cccc4[nH]c(Cl)c(c34)C[C@H]21 [355/1335, 2-Chloro-6-methyl-8-[(2-cyclopentenon)-3-oxymethyl]-ergoline]
ED50 [1]: 0.3 mg/kg | LD50 at 168 h [2]: 200 mg/kg | ED50 [3]: 0.2 mg/kg

CC(=O)C=C(C)OC[C@@H]1C[C@@H]2c3cccc4[nH]cc(c34)C[C@H]2N(C)C1 [355/1171, 6-Methyl-3-[(3-buten-2-one-4-methyl)-4-oxymethyl]-ergoline]
ED50 [4]: 0.023 mg/kg | LD50 at 168 h [2]: > 800 mg/kg

CCCN1C[C@H](COC=CC(C)=O)C[C@@H]2c3cccc4[nH]cc(c34)C[C@H]21 [355/1363, 6-Propyl-8-[(3-buten-2-one)-4-oxymethyl]-ergoline]
ED50 [4]: 2.4 mg/kg | LD50 at 168 h [2]: 400 mg/kg

CN(C)CCCN1c2ccccc2CCc2ccccc21 [imipramine, reference compound]
ED50 [1]: 18.2 mg/kg | orientative acute toxicity (in words) (mouse): quite higher orientative acute toxicity | ED50 ([3]; gavage 1 h before reserpine 1.5 mg/kg i.p., scored 2 h after reserpine, male mice): 3.1 mg/kg

CN1C[C@H](CNC2=CC(=O)CC2)C[C@@H]2c3cccc4[nH]cc(c34)C[C@H]21 [355/1206, 6-Methyl-8-[(2-cyclopentenon)-3-aminomethyl]-ergoline]
ED50 [1]: 7.7 mg/kg | LD50 at 168 h [2]: > 800 mg/kg | ED50 [3]: 3.1 mg/kg

CC(=CC#N)OC[C@@H]1C[C@@H]2c3cccc4[nH]cc(c34)C[C@H]2N(C)C1 [355/1311, 6-Methyl-8-[(3-methylacrylic nitrile)-3-oxymethyl]-ergoline]
ED50 [1]: 3.4 mg/kg | LD50 at 168 h [2]: 300 mg/kg | ED50 [3]: 1.5 mg/kg

Cc1[nH]c2cccc3c2c1C[C@@H]1[C@@H]3C[C@@H](COC2=CC(=O)CC2)CN1C [355/1301, 2,6-Dimethyl-8-[(2-cyclopentenon)-3-oxymethyl]-ergoline]
ED50 [1]: 0.57 mg/kg | LD50 at 168 h [2]: 300 mg/kg | ED50 [3]: 0.46 mg/kg

CN1C[C@H](COC2=CC(=O)CC2)C[C@@H]2c3cccc4[nH]cc(c34)C[C@H]21 [355/1228, 6-Methyl-8-[(2-cyclopentenon)-3-oxymethyl]-ergoline]
ED50 [1]: 0.39 mg/kg | LD50 at 168 h [2]: > 600 mg/kg | ED50 [3]: 0.14 mg/kg

CSc1[nH]c2cccc3c2c1C[C@@H]1[C@@H]3C[C@@H](COC=CC(C)=O)CN1C [355/1357, 2-Thiomethyl-6-methyl-8-[(3-buten-2-one)-4-oxymethyl]-ergoline]
ED50 [4]: 2.5 mg/kg | LD50 at 168 h [2]: > 300 mg/kg

CN1C[C@H](CNC2=CC(=O)CC2)C[C@@H]2c3cccc4c3c(cn4C)C[C@H]21 [355/1295, 1,6-Dimethyl-8-[(2-cyclopentenon)-3-aminomethyl]-ergoline]
ED50 [4]: 1.8 mg/kg | LD50 at 168 h [2]: > 400 mg/kg

CO[C@]12C[C@@H](COC3=CC(=O)CC3)CN(C)[C@@H]1Cc1cn(C)c3cccc2c13 [355/1240, 1,6-Dimethyl-8-[(2-cyclopentenon)-3-oxymethyl]-10-methoxyergoline]
ED50 [4]: 1.8 mg/kg | LD50 at 168 h [2]: 200 mg/kg

Reference: patent US4382940A (priority 1979, dated 1983)
